In this assay the target is 5-HT7 serotonin receptor (Homo sapiens, UniProt P34969). Kind of assay: competitive radioligand binding versus [3H]LSD. The format is cell-based.
5-HT7 serotonin receptor, sequence (P34969 whole entry): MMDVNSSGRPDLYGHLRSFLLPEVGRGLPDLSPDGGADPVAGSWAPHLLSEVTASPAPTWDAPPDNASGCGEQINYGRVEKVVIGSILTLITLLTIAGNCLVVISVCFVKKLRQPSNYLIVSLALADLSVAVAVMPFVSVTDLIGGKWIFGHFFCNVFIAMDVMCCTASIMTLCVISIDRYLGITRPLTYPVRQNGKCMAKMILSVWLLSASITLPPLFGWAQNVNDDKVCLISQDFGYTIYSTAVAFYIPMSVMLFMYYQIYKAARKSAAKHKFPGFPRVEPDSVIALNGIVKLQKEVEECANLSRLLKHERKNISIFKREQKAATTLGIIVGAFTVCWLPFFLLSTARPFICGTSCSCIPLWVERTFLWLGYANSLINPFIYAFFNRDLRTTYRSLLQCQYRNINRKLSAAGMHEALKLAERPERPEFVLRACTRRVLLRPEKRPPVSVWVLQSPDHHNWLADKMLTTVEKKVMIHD

Turning to cimicifugic acid KK [compound 4], the half-maximal inhibitory concentration (IC50) (in general, the concentration needed to halve the response being measured) was determined as 100 µM.

For the origin of these results see article PMC2715282 (Phytochemical analysis : PCA, 2009).
